According to patent US20250304526A1, “HIGH AND MULTIPLE REDOX POTENTIAL, STABLE, AND SOLUBLE BIS-DIARYLAMINE DERIVATIVES AND USES THEREOF” (University of Kentucky Research Foundation, priority 2024, published 2025):

Assay: Solubility determination in pure acetonitrile by mass measurement
Assay type: physicochemical
Experimental: The solubility of the compounds in pure acetonitrile was determined by the mass measurement method described previously. Saturated solutions of each compound were prepared and filtered to remove any undissolved material. Afterwards, 3 mL of each solution were taken and added to previously weighed vials (the measurement was repeated three times for each solution, i.e. 3 vials for each solution). The vials were then stored open in a nitrogen-filled glove box to allow the slow evaporation of the solvent. After 10 days, acetonitrile was evaporated from all vials, leaving only the previously dissolved solid. The vials were then re-weighed and the mass of the solid was determined by subtracting the mass of the respective empty vial. The concentration of the compound was calculated from the mass of the dissolved solid and the volume of the sample placed into the vial.
The solubilities of 1-4 were examined in pure CH3CN using the mass measurement method.

c1ccc(N(c2ccccc2)c2ccc(N(c3ccccc3)c3ccccc3)cc2)cc1 [A, N,N,N′,N′-Tetraphenyl-1,4-phenylenediamine, reference compound]
solubility: virtually insoluble
